A short description of data set [1]: viscosity (flow property) and taste assessment. Format: physicochemical. Here is the method:
Properties of provided compounds and compositions can be readily tested, including using a number of methods widely known and practiced in the art, in accordance with the present disclosure. For example, viscosity and/or taste of provided compounds can be readily tested. In some embodiments, viscosity was assessed by testing whether a provided compound could readily flow out of a vial or be swirled. In some embodiments, viscosity was assessed by testing whether a provided compound could be administered by direct drinking by a subject. In some embodiments, viscosity can be measured quantitatively or qualitatively by methods and instruments as known and practiced in the art. In some embodiments, taste was assessed by testing whether a provided compound could be administered by direct drinking by a subject.

Data set [2] deals with dextran sulfate sodium (DSS)-induced colitis in mice. Kind of data set: mouse dextran sulfate sodium (DSS) model of acute ulcerative colitis. As to Colon Content Score (0-3): key: 0=normal, no blood observed; 1=semi-solid stool, may be slightly blood tinged; 2=semi-solid to fluid stool with definite evidence of blood; 3=bloody fluid or no content, (include animals with no observable distal content in this category). The class given is in vivo, mice (Swiss Webster). The note with it: for restoration of colon length (in words): DSS-induced colitis in mice, oral administration.
Where [3] appears, read: CsA (75 mg/kg PO QD) vs. Compound I-1 (2 g/kg PO BID).
[4] abbreviates: Naïve vs. Compound I-1 (2 g/kg PO BID).
Setting [5] is: Vehicle vs. Compound I-1 (2 g/kg PO BID).
[6] abbreviates: individual animals, necropsy day 7, 3% DSS, Compound I-1 2 g/kg PO, BID (d0-6).

Where “and” joins values, the source holds several entries; their conditions need not be identical. Identical values can stand only once.

In the case of `CCCC(=O)OCC(COC(=O)CCC(=O)OCC(COC(=O)CCC)OC(=O)CCC)OC(=O)CCC` (stereo not drawn) [Compound I-1], in data set [1], the “flow properties and taste for formulation” value is “surprisingly good flow properties and taste”; the “viscosity compared with glycerol” value was “lower viscosity than glycerol”. In data set [2] (setting [3]), the “Mean Diff., Tukey's multiple comparisons test (colon length, FIG. 2)” value was determined as 0.65 and the “Significant? Tukey's multiple comparisons test (colon length, FIG. 2)” value is “No”. In data set [2], the “restoration of colon length (in words)” value was “significantly restore colon length”. Moreover, in data set [2] (listed as compound I-1), the “restoration of colon length (in words)” value is reported as “effectively restored colon length”. Also, in data set [2] (setting [4]), the “Mean Diff., Tukey's multiple comparisons test (colon length, FIG. 2)” value amounted to 1.85 and the “Significant? Tukey's multiple comparisons test (colon length, FIG. 2)” value is “Yes”. Further, in data set [2] (setting [5]), the “Mean Diff., Tukey's multiple comparisons test (colon length, FIG. 2)” value is on record as −1.05 and the “Significant? Tukey's multiple comparisons test (colon length, FIG. 2)” value is on record as “Yes”. In data set [2] (setting [6]), the “Colon Content Score (0-3)” value is 1 (8×) and 2 (2×); the “Colon Length” value was 8.00 cm (3×) and 8.25 cm and 6.25 cm (2×) and 8.50 cm and 7.00 cm (2×) and 6.75 cm; the “Colon Weight:Length” value was 0.046 g/cm and 0.039 g/cm and 0.043 g/cm and 0.063 g/cm and 0.042 g/cm and 0.054 g/cm and 0.034 g/cm and 0.047 g/cm and 0.056 g/cm and 0.048 g/cm; the “Colon Wet Wt” value was 0.369 g and 0.320 g and 0.343 g and 0.391 g and 0.332 g (2×) and 0.339 g and 0.291 g and 0.390 g and 0.324 g.

Turning to `CCCC(=O)OCC(COC(=O)CCC)OC(=O)CCC(=O)OC(COC(=O)CCC)COC(=O)CCC` [Compound I-2], the “flow properties and taste for formulation” value in data set [1] was “surprisingly good flow properties and taste”.

These data come from patent publication US20200369594A1, “COMPOUNDS COMPRISING SHORT-CHAIN FATTY ACID MOIETIES AND COMPOSITIONS AND METHODS THEREOF” (priority 2018, published 2020).
